Assay results reported in patent US10682415B2, “Thermogel formulation for combination drug delivery” (Wisconsin Alumni Research Foundation, priority 2013, dated 2020).
Each block holds one compound with its values, some of them ahead of it.

What was measured:
[1] = test system: ES-2-luc human ovarian cancer cells; test: In vitro cytotoxicity in ES-2-luc cells
[2] = neutral pH; cited from earlier work
[3] = Initial gel formation experiments (stable thermogel with PLGA-PEG-PLGA); format: physicochemical; conditions: for Thermogel Formation: drug(s) with PLGA-PEG-PLGA polymer, about 1 mg drug per 10 mg polymer
[4] = Rehydration time, gelation time and physical observation of lyophilized sample and gel; format: physicochemical
Experimental: (§1) The drug delivery system containing a combination of three drugs can be prepared as follows. Paclitaxel (PTX; 6 mg), 17-AAG (6 mg), and rapamycin (RAPA; 3 mg) were combined with 1.5 mL of tent-Butanol (TBA) to obtain a clear solution at 60° C. Separately, cold water was added to PLGA1.5k-PEG1k-PLGA1.5k and the mixture was incubated at refrigeration temperature (4° C.) for 2-3 days to obtain 100 mg/mL of polymer solution. The polymer solution (1.5 mL) was rapidly added to 1.5 mL of drug/TBA mixture (50% TBA). The mixture was rapidly vortexed and warmed to 60° C. for less than one minute to prevent phase separation. The mixture was rapidly frozen with ethanol/dry ice (−72° C.) for 1 hour and lyophilized for 24 hours (below 0.8 bar at −45° C.).
(§2) Samples were diluted with cold water and kept at 4° C. Liquefied samples were passed through about […] (e.g., clear solution (x)) to about 0.2 μm (e.g., clear solution (y)) of a regenerated cellulose membrane filter (RC filter) at 4° C. and concentrations were quantified using RP-HPLC.
In general, an elegant lyophilized cake can improve rehydration time and solubility of the lyophilized cake in aqueous solution.

[5] = Drug release kinetics of thermogel at 37° C. (cassette MWCO 20,000, first-order model); format: physicochemical
Experimental: The drug release kinetics of the composition at 37° C. was evaluated. Data is shown below in Table 1-3. […] Each cassette (MWCO 20,000) contained 0.3 mL of Triogel (n=3). […] The profile of the release kinetics was fit into a first-order model (Prism ver 5.0), as illustrated in FIG. 2.
The release kinetics of 1-drug thermogels (37° C.) were analyzed. Separately, compositions having 6 mg, 6 mg, and 3 mg of PTX, 17-AAG, and RAPA mixed with 60, 60, and 30 mg of polymers, respectively, in 1.0 mL of water were evaluated. Each cassette (MWCO 20,000) contained 0.3 mL of Thermogel (n=3). Profile of release kinetics was fit into a first-order model (Prism ver 5.0).

[6] = Drug content incorporated in thermogel quantified by RP-HPLC; format: physicochemical
Experimental: as §1, §2

SMILES: C=CCNC1=C2C[C@@H](C)C[C@H](OC)[C@H](O)[C@@H](C)/C=C(\C)[C@H](OC(N)=O)[C@@H](OC)/C=C\C=C(/C)C(=O)NC(=CC1=O)C2=O [17-AAG, 17-allylamino-17-demethoxygeldanamycin]
cytotoxic effect (in words) [1]: did not induce significant cytotoxic effect
IC50 ([1]; drug(s) dissolved in a mixture of DMSO and medium): 933.6 ± 1.8 nM
water solubility [2]: about 0.1 mg/mL

SMILES: CC1=C2C[C@H]3[C@@H](CC=C4C[C@@H](O)CC[C@@]43C)[C@@H]2CC[C@]12O[C@@H]1C[C@H](C)CN[C@H]1[C@H]2C [Cyclopamine (CYP), cyclopamine]
Thermogel Formation [3]: No
stable thermogel formation / gel integrity ([3]; warming the 4° C. solution with PLGA-PEG-PLGA to room temperature / 37° C.): a stable thermogel was unable to be prepared

Thermogel Formation [3]: Yes
time to form a gel at room temperature ([4]; room temperature): less than two minutes
time gel-like form is retained ([4]; room temperature, 6 mg PTX in 150 mg of polymer): more than two weeks
Physical obs. of gel ([4]; single, two and three drug compositions): Good
PTX gel incorporation by RP-HPLC analysis ([6]; 6 mg PTX in 150 mg of polymer and 50 wt. % TBA): 5.33 mg
Final level of drug, PTX ([6]; single, two and three drug compositions, initial level 6.0 mg/mL): 5.8 ± 0.5 mg/mL
SMILES: CC(=O)O[C@H]1C(=O)[C@@]2(C)[C@H]([C@H](OC(=O)c3ccccc3)[C@]3(O)C[C@H](OC(=O)[C@H](O)[C@@H](NC(=O)c4ccccc4)c4ccccc4)C(C)=C1C3(C)C)[C@]1(OC(C)=O)CO[C@@H]1C[C@@H]2O [PTX, paclitaxel]
k: release kinetic constant ([5]; release from Triogel (6 mg/6 mg/3 mg PTX/17-AAG/RAPA, 150 mg polymer, 1 mL water), n = 3): 0.0577 ± 0.0230 h⁻¹
k (release kinetic constant) ([5]; release from two drug thermogel PTX/17-AAG (6 mg/6 mg in 120 mg polymer, 1 mL water)): 0.2037 ± 0.0575 h⁻¹
k (release kinetic constant) ([5]; release from two drug thermogel PTX/RAPA (6 mg/3 mg in 90 mg polymer, 1 mL water)): 0.1035 ± 0.0354 h⁻¹
k (release kinetic constant) ([5]; single drug compositions, n = 3): 0.0682 ± 0.0112 h⁻¹

SMILES: CO[C@H]1C[C@@H]2CC[C@@H](C)[C@@](O)(O2)C(=O)C(=O)N2CCCC[C@H]2C(=O)O[C@H]([C@H](C)C[C@@H]2CC[C@@H](O)[C@H](OC)C2)CC(=O)[C@H](C)/C=C(\C)[C@@H](O)[C@@H](OC)C(=O)[C@H](C)C[C@H](C)/C=C/C=C/C=C/1C [RAPA, rapamycin]
cytotoxic effect (in words) [1]: did not induce significant cytotoxic effect
